Measurements from patent US20130129675A1, “INTERFERON THERAPIES IN COMBINATION WITH BLOCKADE OF STAT3 ACTIVATION” (BOARD OF REGENTS, THE UNIVERSITY OF TEXAS SYSTEM, priority 2009, published 2013).

Columns and labels:
Tregs (CD4+Foxp3+) = assay: Inhibition of Tregs in vivo; set-up: species or system mice; conditions: for number of Foxp3+ Tregs in the thymus, lymph nodes, or spleen: alone or in combination; for % of CD4+ Foxp3+ Cells: bone marrow, control 24.5; for % of CD4+ Foxp3+ Cells / inhibition of the number of Tregs (CD4+Foxp3+) in the bone marrow: non-tumor bearing mice treated for 16 days; for inhibition of the number of Tregs (CD4+Foxp3+) in the peripheral blood / inhibition of the number of Tregs (CD4+Foxp3+) in the bone marrow: compared with control
Method: Determination of inhibition of Tregs in vivo. […] Single-cell suspensions were prepared from bone marrows, lymph nodes, spleens, thymuses and peripheral blood of mice. Single cells were surface-stained by FITC-conjugated anti-CD4 (L3T4), PerCP-conjugated anti-CD8 (53-6.7) and APC-conjugated anti-CD25 (PC61), and the cells were further subjected to intracellular staining with PE-conjugated mAbs to mouse FoxP3 (clone FJK-16s; eBioscience, San Diego, Calif.) using staining buffers and conditions specified by the manufacturer.
In vivo treatment of mice with IFN-α and WP1193 inhibits bone marrow-derived Tregs but combinational therapy is not synergistic. To ascertain the in vivo effects of IFN-α and WP1193, and in combination on Tregs, non-tumor bearing mice were treated for 16 days.

serum cytokines = assay: Serum cytokine levels (Bio-Plex); assay type: in vivo, C57BL/6J mice; conditions: for IFN-gamma Concentration: control 1.5; for IL-1B Concentration: control 40.1; for TNF alpha Concentration: control 60.5
Method: Determination of serum cytokine levels. Groups of non-tumor bearing 4- to 6-week-old female mice were treated with either IFN-α or “empty” plasmid control, WP1193, or IFN-α in combination with WP1193 as described in FIG. 13. Blood was collected through a tail vein from mice 9 and 16 days after the first WP1193 administration. […] The assay was run according to the manufacturer's instruction (Bio-Rad) by the Immunology Core Service at MD Anderson Cancer Center (Houston, Tex.).
This experiment was reproduced twice in its entirety with identical findings.

[1] = tested on: B16 target cells (NK1.1+CD3− NK effector cells); assay: NK cell cytotoxicity assay against melanoma cells; assay type: cell-based, mice; conditions: WP1193 2 μM, IFN-α 20 ng/ml, 48 h, control 8.8
Method: Splenocytes were prepared as described above. NK1.1+CD3− NK effector cells or CD3+CD8+ T effector cells were sorted from splenocytes on a FACSAria Cell Sorter (BD Biosciences) with FITC-conjugated anti-mouse NK1.1 (eBioscience), PE-conjugated anti-CD3, and allophycocyanin (APC)-conjugated anti-CD8 antibodies (Miltenyi Biotec, Auburn, Calif.). B16 target cells were prepared as described above. The ratio of NK1.1+CD3− NK effector cells or CD8+ T effector cells to B16 target cells was 10:1 and 5:1, respectively. In the presence of NK1.1+CD3− NK cells or CD8+ T cells, treatment groups consisted of B16 target cells alone; B16 cells with 2 μM of WP1193; B16 cells with 20 ng/ml of IFN-α; B16 cells with 2 µM of WP1193 and 20 ng/ml of IFN-α. After 48 hours of incubation, the CFSE-labeled B16 melanoma cells were removed from the plates with trypsin and analyzed by FACS. Then, B16 cells were stained with PI (BD Biosciences) to distinguish viable cells from nonviable cells. B16 cells that were stained with CFSE and PI were considered nonviable. Flow cytometric acquisition of the B16 target cells was performed with a FACSCalibur flow cytometer (BD Biosciences), and data analysis was performed using FlowJo software (TreeStar). […]

[2] = tested on: intracerebral B16 melanoma / LMD; assay: Etiology of death (LMD or tumor progression) in intracerebral B16 model; assay type: in vivo, C57BL/6J mice; conditions: for animals with LMD at death: autopsy at treatment failure, control 75%
Description: Both the control group (n=8) and in those treated with a sub-therapeutic dose of WP1193 (n=9) had macroscopic evidence of LMD, 75% and 67%, respectively, (Data not shown). In contrast, in those mice treated with IFN-α (n=6) or the combination of IFN-α and WP1193 (n=4), only 17% in the former and none of the animals treated with the combination died of LMD (FIG. 5). As would be expected, in a sub-analysis within each treatment group, mice that developed LMD died sooner than did those that died of tumor. Specifically, in the control group, median survival was 16.7±0.7 days in those mice that developed LMD and 18.5±1.5 days in those that died of tumor. Furthermore, in the sub-therapeutic WP1193 group, median survival was 17.7±0.3 days in mice that developed LMD and 20±2.1 days in those that died of tumor. In contrast, within the IFN-α treatment group, the median survival of mice with progressive tumor was 25.8±2.5 days, which was further increased to 29.7±5.5 days in the combination treatment group. Within individual treatment groups there was insufficient power to draw statistically meaningful conclusions; however when we assessed all mice who died of LMD, the median survival was 16.9±0.4 days compared with 24.7±2 days for mice dying of tumor progression (P=0.0006), indicating this model system conforms to the negative prognostic influence of LMD observed in human patients.

[3] = sub-analysis within treatment group

Row | Molecule | number of Foxp3+ Tregs in the thymus, lymph nodes, or spleen (Tregs (CD4+Foxp3+)) | % of CD4+ Foxp3+ Cells (Tregs (CD4+Foxp3+)) | inhibition of the number of Tregs (CD4+Foxp3+) in the peripheral blood (Tregs (CD4+Foxp3+)) | inhibition of the number of Tregs (CD4+Foxp3+) in the bone marrow (Tregs (CD4+Foxp3+)) | IFN-gamma Concentration (serum cytokines) | IL-1B Concentration (serum cytokines) | TNF alpha Concentration (serum cytokines) | % of B16 Killimg [1] | animals with LMD at death [2] | median survival in mice that developed LMD [2, 3] | median survival in mice that died of tumor [2, 3] | suppressive activity of sorted Tregs (Tregs (CD4+Foxp3+); FoxP3-GFP reporter mouse, IFN-α-treated or control)
1 | N#C/C(=C\c1cccc(Br)n1)C(=O)N[C@H](c1ccccc1)C1CC1 [WP1193, (S,E)-3-(6-bromopyridin-2-yl)-2-cyano-N-(cyclopropyl(phenyl)methyl)acrylamide] | did not inhibit | 16.8% | 20% | 31% | Not detected | 20.0 pg/mL | 60.0 pg/mL | 10.9% | 67% | 17.7 ± 0.3 days | 20 ± 2.1 days | 
2 | IFN-α | did not inhibit | 5.2% | 46% | 78% | 20.2 pg/mL | 41.3 pg/mL | 98.7 pg/mL | 12.5% | 17% |  | 25.8 ± 2.5 days | did not see a decrease in the suppressive activity
